Reference: patent publication US7700592B2, “α2C adrenoreceptor agonists” (Schering Corporation, priority 2005, dated 2010)

Biological target: T1, α2C receptor (Homo sapiens, UniProt P18825)
T1 sequence (P18825 1-462): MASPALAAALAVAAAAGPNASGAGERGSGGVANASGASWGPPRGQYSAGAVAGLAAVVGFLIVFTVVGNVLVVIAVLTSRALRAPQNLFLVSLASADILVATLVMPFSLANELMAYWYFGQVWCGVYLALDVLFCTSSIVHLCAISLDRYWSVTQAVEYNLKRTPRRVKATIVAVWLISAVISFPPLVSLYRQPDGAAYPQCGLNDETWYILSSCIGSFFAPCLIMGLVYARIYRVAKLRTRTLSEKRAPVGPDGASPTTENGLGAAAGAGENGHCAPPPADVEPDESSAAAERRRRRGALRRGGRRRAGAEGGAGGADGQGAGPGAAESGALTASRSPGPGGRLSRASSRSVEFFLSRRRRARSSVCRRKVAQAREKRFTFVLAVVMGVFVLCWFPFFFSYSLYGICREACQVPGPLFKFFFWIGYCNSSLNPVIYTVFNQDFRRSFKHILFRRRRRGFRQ
Assay: GTPγS assay, efficacy agonist activity (Emax) for α2C
Assay type: biochemical
Conditions: active agonist = efficacy at α2C ≧30% Emax; functionally selective = additionally efficacy at α2A ≦30% Emax (GTPγS assay)
Procedure, shortened: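 Emax measured in a [^35S]GTPγS functional assay at the human α2C adrenoceptor, following Umland et al. An efficacy of ≧30% Emax defines an active α2C agonist.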

SMILES	Efficacy agonist activity (Emax, GTPγS assay) for α2C: evaluated as active or functionally selective agonist
CCN(C(=O)OCc1cn(C)cn1)c1ccc2c(c1)N(Cc1c[nH]cn1)CCO2 [Compound 287]	active or functionally selective agonists of the α2C receptor subtype
CCN(C(=O)OCc1cn2ccsc2n1)c1ccc2c(c1)N(Cc1c[nH]cn1)CCO2 [Compound 289]	active or functionally selective agonists of the α2C receptor subtype
CCN(C(=O)OCc1cn2ccccc2n1)c1ccc2c(c1)N(Cc1c[nH]cn1)CCO2 [Compound 290]	active or functionally selective agonists of the α2C receptor subtype
O=C(NCc1ccccn1)Nc1ccc2c(c1)N(Cc1c[nH]cn1)CCO2 [Compound 291]	active or functionally selective agonists of the α2C receptor subtype
O=C(NCCc1cccs1)Nc1ccc2c(c1)N(Cc1c[nH]cn1)CCO2 [Compound 297]	active or functionally selective agonists of the α2C receptor subtype
O=C(Nc1ccc2c(c1)N(Cc1c[nH]cn1)CCO2)OCCOc1ccccc1 [Compound 304]	active or functionally selective agonists of the α2C receptor subtype
O=C(Nc1ccc2c(c1)N(Cc1c[nH]cn1)CCO2)OCc1ccc(F)cc1 [Compound 305]	active or functionally selective agonists of the α2C receptor subtype
O=C(Nc1ccc2c(c1)N(Cc1c[nH]cn1)CCO2)OCc1cccc(F)c1 [Compound 306]	active or functionally selective agonists of the α2C receptor subtype
O=C(NCc1ccc(F)cc1)Nc1ccc2c(c1)N(Cc1c[nH]cn1)CCO2 [Compound 307]	active or functionally selective agonists of the α2C receptor subtype
O=C(NCc1cccc(F)c1)Nc1ccc2c(c1)N(Cc1c[nH]cn1)CCO2 [Compound 308]	active or functionally selective agonists of the α2C receptor subtype
CS(=O)(=O)c1ccc(COC(=O)Nc2ccc3c(c2)N(Cc2c[nH]cn2)CCO3)cc1 [Compound 309]	active or functionally selective agonists of the α2C receptor subtype
O=C(Nc1ccc2c(c1)N(Cc1c[nH]cn1)CCO2)OCc1nccs1 [Compound 310]	active or functionally selective agonists of the α2C receptor subtype
O=C(Nc1ccc2c(c1)N(Cc1c[nH]cn1)CCO2)OCc1cc2cccnc2s1 [Compound 311]	active or functionally selective agonists of the α2C receptor subtype
O=C(Nc1ccc2c(c1)N(Cc1c[nH]cn1)CCO2)OCc1nc2ccccc2s1 [Compound 312]	active or functionally selective agonists of the α2C receptor subtype
O=C(Nc1ccc2c(c1)N(Cc1c[nH]cn1)CCO2)OCc1ccnc(Cl)c1 [Compound 314]	active or functionally selective agonists of the α2C receptor subtype
O=C(Nc1ccc2c(c1)N(Cc1c[nH]cn1)CCO2)OCC1CCC1 [Compound 315]	active or functionally selective agonists of the α2C receptor subtype
O=C(Nc1ccc2c(c1)N(Cc1c[nH]cn1)CCO2)OCc1ccc2sccc2c1 [Compound 316]	active or functionally selective agonists of the α2C receptor subtype
Cc1cc(COC(=O)Nc2ccc3c(c2)N(Cc2c[nH]cn2)CCO3)no1 [Compound 317]	active or functionally selective agonists of the α2C receptor subtype
